# Test results as given in EP0505841A2, “Analgesic composition containing beta-carotene” (MILES INC., priority 1991, dated 1992).
# “Also recorded” adds a separate entry of the source.
# Experiments:
# [1] = tested on: Phenylquinone (PQ) Writhing; assay: Phenylquinone (PQ) writhing; assay type: in vivo, mice; conditions: for effect on the analgesia (pain relief effects) of aspirin: interaction term p. <.001; for writhing response, means: two-vehicle combination set at zero; for P.Q. WRITHING (INH. %) ± SEM: mice
# Description: The test sample is administered orally (mg/kg) to a group of 8 mice one hour before injection of PQ (2 mg/kg intraperitonilly). Greater than 50 percent (>50) inhibition of the number of writhes per group of animals observed during 5 to 10 minutes after PQ, relative to a vehicle treated group, indicates possible analgesic activity. [Irwin, Samuel, Psychopharmacologia, 13:22-257, 1968.] A test was conducted using alpha-tocopherol and aspirin. […] All dosing was done orally (PO). […] Again the writhing response was set at zero for the two-vehicle combination.
# paw edema = assay: Carrageenan paw edema, anti-inflammatory test; conditions: rats, p.o., 3 hrs after carrageenan
# [2] = tested on: Prostaglandin and hydroxyicosatetraenoic acid (HETE) production; conditions: bovine seminal vesicles and kidney; cited from earlier work
smiles,measurement,setting,value
"Cc1c(C)c2c(c(C)c1O)CCC(C)(CCCC(C)CCCC(C)CCCC(C)C)O2 (stereo not drawn) [Alpha-tocopherol, alpha-tocopherol]",effect on the analgesia (pain relief effects) of aspirin,[1]; PO,antagonizes the pain relief effects of aspirin; also recorded: antagonism to the analgesia of aspirin
same,effect on the analgesia (pain relief effects) of aspirin,"[1]; PO, listed as Vitamin E",significant antagonistic effect
same,"writhing response, means","[1]; aspirin Veh., Vitamin E 100 mg.",1
same,"writhing response, means","[1]; aspirin Veh., Vitamin E 300 mg.",2
same,P.Q. WRITHING (INH. %) ± SEM,"[1]; PO, A₀ aspirin vehicle + E₁ alpha-tocopherol 300mg/kg",3 ± 1%
same,P.Q. WRITHING (INH. %) ± SEM,"[1]; PO, A₀ aspirin vehicle + E₂ alpha-tocopherol 100mg/kg",1 ± 1%
same,P.Q. WRITHING (INH. %) ± SEM,"[1]; PO, A₀ aspirin vehicle + E₃ alpha-tocopherol 30 mg/kg",3 ± 1%
same,P.Q. WRITHING (INH. %) ± SEM,"[1]; PO, A₀ aspirin vehicle + E₅ alpha-tocopherol 3 mg/kg",3 ± 1%
"CC(=O)Oc1ccccc1C(=O)O [Aspirin, aspirin]",ED20,"[1]; Mus musculus, PO, also used as dose level A₁, read-out: ED₂₀",8.3 mg/kg
same,ED50,"[1]; Mus musculus, PO, also used as dose level A₂, read-out: ED₅₀",25 mg/kg
same,ED80,"[1]; Mus musculus, PO, also used as dose level A₃, read-out: ED₈₀",75 mg/kg
same,"writhing response, means","[1]; aspirin ED20, Vitamin E Vehicle",20
same,"writhing response, means","[1]; aspirin ED50, Vitamin E Vehicle",48
same,"writhing response, means","[1]; aspirin ED80, Vitamin E Vehicle",85
same,P.Q. WRITHING (INH. %) ± SEM,"[1]; PO, A₁ aspirin 8.3 mg/kg + E₀ alpha-tocopherol vehicle",20 ± 1%
same,P.Q. WRITHING (INH. %) ± SEM,"[1]; PO, A₂ aspirin 25 mg/kg + E₀ alpha-tocopherol vehicle",48 ± 2%
same,P.Q. WRITHING (INH. %) ± SEM,"[1]; PO, A₃ aspirin 75 mg/kg + E₀ alpha-tocopherol vehicle",85 ± 2%
same,Mean Paw Volumes,paw edema; A1 aspirin 10 mg/kg + B0 ß-carotene vehicle,79.1 ml. x 10^-2
same,Mean Paw Volumes,paw edema; A2 aspirin 30 mg/kg + B0 ß-carotene vehicle,73.9 ml. x 10^-2
same,Mean Paw Volumes,paw edema; A3 aspirin 100 mg/kg + B0 ß-carotene vehicle,58.9 ml. x 10^-2
same,Mean Paw Volumes,paw edema; A4 aspirin 300 mg/kg + B0 ß-carotene vehicle,38.8 ml. x 10^-2
CC1=C(/C=C/C(C)=C/C=C/C(C)=C/CO)C(C)(C)CCC1 [retinol],Prostaglandin and hydroxyicosatetraenoic acid (HETE) production,[2],considerably inhibited
"CC1=C(/C=C/C(C)=C/C=C/C(C)=C/C=C/C=C(C)/C=C/C=C(C)/C=C/C2=C(C)CCCC2(C)C)C(C)(C)CCC1 [β-Carotene, ß-carotene]",Mean Paw Volumes,paw edema; A0 aspirin vehicle + B1 ß-carotene 10 mg/kg,86.0(.24) ml. x 10^-2
same,Mean Paw Volumes,paw edema; A0 aspirin vehicle + B2 ß-carotene 30 mg/kg,86.5(.14) ml. x 10^-2
same,Mean Paw Volumes,paw edema; A0 aspirin vehicle + B3 ß-carotene 100 mg/kg,81.6(.16) ml. x 10^-2
same,Mean Paw Volumes,paw edema; A0 aspirin vehicle + B4 ß-carotene 300 mg/kg,81.9(.21) ml. x 10^-2
same,Prostaglandin and hydroxyicosatetraenoic acid (HETE) production,[2],considerably inhibited
